Assay: pKa (acid dissociation constant) of dispersing agents and acids
Assay type: physicochemical
Conditions: acid of pretreatment solution
Excerpt: The pKa value, as described in the present invention, is also called an acid dissociation constant, which is detailed, for example, in Buichi Sakaguchi and Keihei Ueno, Kinzoku Chelates [III] (Metal Chelates [III]), Nanko Do, which describes pKa values of acidic dissociating groups. Further, it is possible to determine the pKa of compounds, which are not described in the above reference, employing conventional methods. For example, it is possible to determine the pKa employing the method described, for example, in Jikken Kagaku Koza 5 Netsuteki Sokutei oyobi Heiko (Experimental Chemistry Lecture 5 Thermal Measurements and Equilibrium) page 460, edited by Nihon Kagaku Kai, Maruzen Co., Ltd.

pKa (first listed pKa value): < 2 | pKa (second listed pKa value): 5.8
SMILES: O=C(O)/C=C\C(=O)O [maleic acid]

Source: patent US7669997B2, “Ink-jet textile printing method” (Konica Minolta Holdings, Inc., priority 2004, dated 2010)
